In ChEMBL document CHEMBL4834417, “Diverse Polycyclic Polyprenylated Acylphloroglucinol Congeners with Anti-Nonalcoholic Steatohepatitis Activity from Hypericum forrestii” (J Nat Prod, 2021):
Activity calls are given as the source filed them.

Columns and labels:
Format in all cases: functional, cell-based
L02 [1] = assay: Anti-nonalcoholic steatohepatitis activity in FFA-induced human L02 cells assessed as reduction in lipid droplets at 5 uM after 48 hrs by Oil red O staining based assay
L02 [2] = assay: Anti-nonalcoholic steatohepatitis activity in FFA-induced human L02 cells assessed as reduction in lipid droplets after 48 hrs by Oil red O staining based assay; conditions: dose 5-10 µM
L02 [3] = assay: Anti-nonalcoholic steatohepatitis activity in FFA-induced human L02 cells assessed as downregulation of CD36 mRNA expression at 10 uM by QRT-PCR analysis
L02 [4] = assay: Anti-nonalcoholic steatohepatitis activity in FFA-induced human L02 cells assessed as downregulation of FASN mRNA expression at 10 uM by QRT-PCR analysis
L02 [5] = assay: Anti-nonalcoholic steatohepatitis activity in FFA-induced human L02 cells assessed as upregulation of PPARalpha mRNA expression at 10 uM by QRT-PCR analysis
L02 [6] = assay: Anti-nonalcoholic steatohepatitis activity in FFA-induced human L02 cells assessed as upregulation of ACOX1 mRNA expression at 10 uM by QRT-PCR analysis

Measured: Activity

CC(C)=CCC[C@]1(C)[C@@H](CC=C(C)C)C[C@]23C[C@H](C(C)(C)O)OC2=C(CC=C(C)C)C(=O)[C@@]1(C(=O)c1ccccc1)C3=O
active: L02 [1] | L02 [2] Dose-Dependent Effect | L02 [3] | L02 [4] | L02 [5] | L02 [6]

CC(C)=CCC/C(C)=C/C[C@]1(CC=C(C)C)C(=O)C(C(=O)c2ccccc2)=C2OC(C)(C)[C@@H]3C[C@]23C1=O
active: L02 [1] | L02 [2] Dose-Dependent Effect | L02 [3] | L02 [4] | L02 [5] | L02 [6]
